Experimental data as given in patent EP3858818A1, “TRIKETONE COMPOUND, PREPARATION METHOD THEREFOR AND USE THEREOF, AND HERBICIDE” (Shandong Cynda Chemical Co., LTD., priority 2018, dated 2020).

Assays:
Format in all cases: in vivo
[1] = system: Abutilon theophrasti; experiment: Preliminary screening test (pot-culture method), post-emergence stem and leaf spray; details: 150 g.a.i/ha; stems and leaves sprayed at 4-5 leaves stage; investigated after 30 days; visual rating
Source text: (§1) Preliminary screening test (pot-culture method): the targets of the test are Echinochloa crusgalli, Digitaria sanguinalis, Setaria viridis, Amaranthus tricolor, Chenopodium album, Abutilontheophrasti. Spraying the stems and leaves after seedlings: taking a paper cup with an inner diameter of 7 cm and fill it with composite soil (vegetable garden soil: seedling substrate, 1: 2, v/v) to 3/4 of the cup. Sowing weeds directly, cover it with 0.2 cm soil and wait until it grows to 4-5 leaves stage for later use. The compounds of the invention and the aforementioned comparative compound D1 are applied in an automatic spray tower at a dose of 150 g.a.i/ha (g/ha). After the liquid on the crop leaves is dried in the air, the crops are transferred to the greenhouse for cultivation (humidity 70%), and the results were investigated after 30 days.
(§2) The growth inhibition rate evaluation method is a visual method. The growth inhibition rate is rated specifically according to the conditions shown in table 2, and the test results are shown in Table 3.

[2] = system: Amaranthus tricolor; experiment: as above; details: 150 g.a.i/ha; stems and leaves sprayed at 4-5 leaves stage; investigated after 30 days; visual rating
Source text: as §1, §2

[3] = system: Chenopodium album; experiment: as above; details: 150 g.a.i/ha; stems and leaves sprayed at 4-5 leaves stage; investigated after 30 days; visual rating
Source text: as §1, §2

[4] = system: Digitaria sanguinalis; experiment: as above; details: 150 g.a.i/ha; stems and leaves sprayed at 4-5 leaves stage; investigated after 30 days; visual rating
Source text: as §1, §2

[5] = system: Echinochloa crusgalli; experiment: as above; details: 150 g.a.i/ha; stems and leaves sprayed at 4-5 leaves stage; investigated after 30 days; visual rating
Source text: as §1, §2

[6] = system: Setaria viridis; experiment: as above; details: 150 g.a.i/ha; stems and leaves sprayed at 4-5 leaves stage; investigated after 30 days; visual rating
Source text: as §1, §2

[7] = system: Aegilops squarrosa; experiment: Re-screen assay at low dose (pot-culture method); details: post-emergence spray, 30 days
Source text: as §1, §2
(§3) The same method as in test example 1 is used to conduct re-screen assays at the low dose for representative compounds, and the results are shown in Table 4.

[8] = system: Alopecurus aequalis; experiment: Re-screen assay at low dose (pot-culture method); details: post-emergence spray, 30 days
Source text: as §1, §2, §3

[9] = system: Alopecurus japonicus; experiment: Re-screen assay at low dose (pot-culture method); details: post-emergence spray, 30 days
Source text: as §1, §2, §3

[10] = system: Avena fatua; experiment: Re-screen assay at low dose (pot-culture method); details: post-emergence spray, 30 days
Source text: as §1, §2, §3

[11] = system: Bromus japonicus; experiment: Re-screen assay at low dose (pot-culture method); details: post-emergence spray, 30 days
Source text: as §1, §2, §3

[12] = system: Digitaria sanguinalis; experiment: Re-screen assay at low dose (pot-culture method); details: post-emergence spray, 30 days
Source text: as §1, §2, §3

[13] = system: Echinochloa crusgalli; experiment: Re-screen assay at low dose (pot-culture method); details: post-emergence spray, 30 days
Source text: as §1, §2, §3

[14] = system: Setaria viridis; experiment: Re-screen assay at low dose (pot-culture method); details: post-emergence spray, 30 days
Source text: as §1, §2, §3

[15] = system: Aegilops squarrosa, Avenafatua, Bromus japonicus, Alopecurus aequalis, and Alopecurus japonicus; experiment: Re-screening with reduced concentration, summary in text for gramineous weeds of wheat fields; details: at three application concentrations (120, 60, 30 g.a.i/ha); result in words

## Cc1cccc(C)c1-n1c(=O)c2cc(C(=O)C3=C(O)CCCC3=O)ccc2n(C)c1=O [Compound D1]
[1]
  Inhibition Level Abutilon theophrasti: 4 (weeds or crops die.)
[2]
  Inhibition Level Amaranthus tricolor: 4 (weeds or crops die.)
[3]
  Inhibition Level Chenopodium album: 5 (weeds or crops die completely.)
[4]
  Inhibition Level Digitaria sanguinalis: 4 (weeds or crops die.)
[5]
  Inhibition Level Echinochloa crusgalli: 4 (weeds or crops die.)
[6]
  Inhibition Level Setaria viridis: 4 (weeds or crops die.)
[7]; 30 g.a.i/ha
  Inhibition Level Aegilops squarrosa: 0 (has no influence on the growth of weeds or crops and has no drug effect symptom.)
[7]; 60 g.a.i/ha
  Inhibition Level Aegilops squarrosa: 1 (slightly affects the growth of weeds or crops, and has no obvious drug effect symptom.)
[7]; 120 g.a.i/ha
  Inhibition Level Aegilops squarrosa: 2 (has certain effect on weed or crop growth, and has obvious drug effect.)
[8]; 30 g.a.i/ha
  Inhibition Level Alopecurus aequalis: 0 (has no influence on the growth of weeds or crops and has no drug effect symptom.)
[8]; 60 g.a.i/ha
  Inhibition Level Alopecurus aequalis: 0 (has no influence on the growth of weeds or crops and has no drug effect symptom.)
[8]; 120 g.a.i/ha
  Inhibition Level Alopecurus aequalis: 1 (slightly affects the growth of weeds or crops, and has no obvious drug effect symptom.)
[9]; 30 g.a.i/ha
  Inhibition Level Alopecurus japonicus: 0 (has no influence on the growth of weeds or crops and has no drug effect symptom.)
[9]; 60 g.a.i/ha
  Inhibition Level Alopecurus japonicus: 0 (has no influence on the growth of weeds or crops and has no drug effect symptom.)
[9]; 120 g.a.i/ha
  Inhibition Level Alopecurus japonicus: 0 (has no influence on the growth of weeds or crops and has no drug effect symptom.)
[10]; 30 g.a.i/ha
  Inhibition Level Avena fatua: 0 (has no influence on the growth of weeds or crops and has no drug effect symptom.)
[10]; 60 g.a.i/ha
  Inhibition Level Avena fatua: 0 (has no influence on the growth of weeds or crops and has no drug effect symptom.)
[10]; 120 g.a.i/ha
  Inhibition Level Avena fatua: 2 (has certain effect on weed or crop growth, and has obvious drug effect.)
[11]; 30 g.a.i/ha
  Inhibition Level Bromus japonicus: 0 (has no influence on the growth of weeds or crops and has no drug effect symptom.)
[11]; 60 g.a.i/ha
  Inhibition Level Bromus japonicus: 0 (has no influence on the growth of weeds or crops and has no drug effect symptom.)
[11]; 120 g.a.i/ha
  Inhibition Level Bromus japonicus: 0 (has no influence on the growth of weeds or crops and has no drug effect symptom.)
[12]; 30 g.a.i/ha
  Inhibition Level Digitaria sanguinalis: 3 (weeds or crops are subject to severe growth inhibition.)
[12]; 60 g.a.i/ha
  Inhibition Level Digitaria sanguinalis: 3 (weeds or crops are subject to severe growth inhibition.)
[12]; 120 g.a.i/ha
  Inhibition Level Digitaria sanguinalis: 4 (weeds or crops die.)
[13]; 30 g.a.i/ha
  Inhibition Level Echinochloa crusgalli: 3 (weeds or crops are subject to severe growth inhibition.)
[13]; 60 g.a.i/ha
  Inhibition Level Echinochloa crusgalli: 3 (weeds or crops are subject to severe growth inhibition.)
[13]; 120 g.a.i/ha
  Inhibition Level Echinochloa crusgalli: 4 (weeds or crops die.)
[14]; 30 g.a.i/ha
  Inhibition Level Setaria viridis: 3 (weeds or crops are subject to severe growth inhibition.)
[14]; 60 g.a.i/ha
  Inhibition Level Setaria viridis: 3 (weeds or crops are subject to severe growth inhibition.)
[14]; 120 g.a.i/ha
  Inhibition Level Setaria viridis: 4 (weeds or crops die.)
[15]
  herbicidal activity on gramineous weeds in wheat fields: hardly shows herbicidal activity
